# According to patent publication US12037344B2, “NLRP3 modulators” (INNATE TUMOR IMMUNITY, INC., priority 2018, dated 2024):
# Where two headings read alike, the source gives them in different places.
# Assays:
# TLR8 = target: T1, TLR8 (Homo sapiens, UniProt Q9NR97); assay: In vitro human TLR8 binding reporter assay (HEK-Blue, NF-kB/AP1-inducible SEAP); assay type: cell-based; conditions: activity range, read-out: TLR8 Agonist EC50
# T1 construct: human HEK-Blue cells co-expressing a TLR7 or TLR8 gene
# T1 sequence (Q9NR97 27-1041): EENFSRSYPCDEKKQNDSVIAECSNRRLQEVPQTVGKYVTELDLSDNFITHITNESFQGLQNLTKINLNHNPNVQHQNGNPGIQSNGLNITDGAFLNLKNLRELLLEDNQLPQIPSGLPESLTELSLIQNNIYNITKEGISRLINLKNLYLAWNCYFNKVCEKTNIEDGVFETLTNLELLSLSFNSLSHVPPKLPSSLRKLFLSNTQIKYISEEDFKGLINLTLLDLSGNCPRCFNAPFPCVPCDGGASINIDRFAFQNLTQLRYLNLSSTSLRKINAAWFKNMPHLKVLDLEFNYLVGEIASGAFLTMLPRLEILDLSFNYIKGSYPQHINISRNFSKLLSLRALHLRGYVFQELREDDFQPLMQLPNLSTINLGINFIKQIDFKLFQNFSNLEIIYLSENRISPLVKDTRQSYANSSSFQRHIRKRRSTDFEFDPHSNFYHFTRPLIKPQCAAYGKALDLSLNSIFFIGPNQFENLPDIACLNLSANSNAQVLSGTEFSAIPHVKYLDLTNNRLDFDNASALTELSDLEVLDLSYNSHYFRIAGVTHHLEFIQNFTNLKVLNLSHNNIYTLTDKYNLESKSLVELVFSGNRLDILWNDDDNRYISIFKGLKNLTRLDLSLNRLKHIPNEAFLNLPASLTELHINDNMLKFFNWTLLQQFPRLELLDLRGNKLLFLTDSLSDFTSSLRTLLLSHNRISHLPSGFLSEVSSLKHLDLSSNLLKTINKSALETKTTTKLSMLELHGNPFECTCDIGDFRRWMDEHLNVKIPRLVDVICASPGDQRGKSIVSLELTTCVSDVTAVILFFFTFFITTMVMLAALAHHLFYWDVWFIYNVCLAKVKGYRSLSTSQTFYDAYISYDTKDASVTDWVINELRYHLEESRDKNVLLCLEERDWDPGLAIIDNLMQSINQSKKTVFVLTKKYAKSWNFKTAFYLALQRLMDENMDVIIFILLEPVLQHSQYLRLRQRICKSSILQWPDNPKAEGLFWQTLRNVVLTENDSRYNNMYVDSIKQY
# Summary of the method: (§1)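 Cells are seeded and grown for 24 h. Compounds or DMSO are then added and incubated 18 h at 37 °C. Quanti-Blue is added, and SEAP is read after thirty minutes. EC50 values are normalized, with RLU from 50 μM reference standard setting 100% Ymax.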
# THP-1 cells = assay: Measurement of IL-1β production, hTRF protocol (second alternative procedure), THP-1 cells; assay type: cell-based, human; conditions: human cells, read-out: NLRP3 hILIB EC50
# Summary of the method: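 Compounds, dilution series starting at a final 10 μM, were incubated 2 hours at 37° C with PMA-differentiated THP-1 cells (50 ng/ml overnight; 50,000 cells/well, 2% FBS RPMI). Released IL-1β quantified in supernatant by hTRF kit with 1:40 antibody dilution, 4° C overnight, 665/615 nm ratio.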
# TLR7 = target: T2, TLR7 (Homo sapiens, UniProt Q9NYK1); assay: In vitro human TLR7 binding reporter assay (HEK-Blue, NF-kB/AP1-inducible SEAP); assay type: cell-based; conditions: activity range, read-out: TLR7 Agonist EC50
# T2 construct: human HEK-Blue cells co-expressing a TLR7 or TLR8 gene
# T2 sequence (Q9NYK1 27-1049): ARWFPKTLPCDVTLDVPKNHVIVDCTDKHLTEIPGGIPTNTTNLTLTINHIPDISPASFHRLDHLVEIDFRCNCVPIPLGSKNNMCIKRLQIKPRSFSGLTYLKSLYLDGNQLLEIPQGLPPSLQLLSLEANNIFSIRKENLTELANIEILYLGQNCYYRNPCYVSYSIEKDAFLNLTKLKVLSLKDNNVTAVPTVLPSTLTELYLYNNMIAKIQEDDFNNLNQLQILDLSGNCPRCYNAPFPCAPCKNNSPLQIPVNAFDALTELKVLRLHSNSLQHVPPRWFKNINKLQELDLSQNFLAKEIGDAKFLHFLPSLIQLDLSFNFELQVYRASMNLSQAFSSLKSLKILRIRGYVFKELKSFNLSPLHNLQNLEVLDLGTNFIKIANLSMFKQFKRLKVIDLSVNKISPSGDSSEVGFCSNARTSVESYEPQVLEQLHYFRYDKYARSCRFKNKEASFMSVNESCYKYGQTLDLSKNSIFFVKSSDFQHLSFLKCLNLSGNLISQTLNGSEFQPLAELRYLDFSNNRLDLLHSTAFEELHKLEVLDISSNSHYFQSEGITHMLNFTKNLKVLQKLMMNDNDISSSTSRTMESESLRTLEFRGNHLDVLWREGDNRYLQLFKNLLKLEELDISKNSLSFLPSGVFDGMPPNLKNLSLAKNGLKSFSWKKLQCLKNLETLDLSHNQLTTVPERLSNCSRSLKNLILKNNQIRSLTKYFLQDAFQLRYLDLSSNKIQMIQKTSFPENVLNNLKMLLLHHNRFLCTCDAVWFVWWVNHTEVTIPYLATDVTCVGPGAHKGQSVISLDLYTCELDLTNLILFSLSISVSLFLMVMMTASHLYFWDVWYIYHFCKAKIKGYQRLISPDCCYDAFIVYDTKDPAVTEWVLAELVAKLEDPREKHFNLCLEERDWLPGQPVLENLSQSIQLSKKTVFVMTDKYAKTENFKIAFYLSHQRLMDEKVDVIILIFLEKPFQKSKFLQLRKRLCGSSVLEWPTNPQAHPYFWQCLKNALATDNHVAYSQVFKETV
# Summary of the method: as §1
# [1] = Homo sapiens, THP-1, IL-1β production
EC50 (TLR8),EC50 (THP-1 cells; [1]),EC50 (TLR7),EC50 (THP-1 cells; IL-1β production),Structure (SMILES)
> 100 µM,5820 nM,> 100 µM,,Nc1nc2cc(-c3cc[nH]n3)ccc2c2nn(CCC(=O)N3CC(O)C3)cc12 [Example 512]
> 100 µM,1280 nM,> 100 µM,,CNC(=O)C(C)(C)n1cc2c(N)nc3cc(-c4cc[nH]n4)ccc3c2n1 [Example 513]
> 100 µM,1810 nM,> 100 µM,,CC(C)(C(=O)NCC(F)F)n1cc2c(N)nc3cc(-c4cc[nH]n4)ccc3c2n1 [Example 514]
> 100 µM,4090 nM,> 100 µM,,Nc1nc2cc(-c3cc[nH]n3)ccc2c2nn(CCC(=O)NCC(F)F)cc12 [Example 515]
> 100 µM,9670 nM,> 100 µM,,N#C[C@H]1CCN(C(=O)CCn2cc3c(N)nc4cc(-c5cc[nH]n5)ccc4c3n2)C1 [Example 516]
> 100 µM,1720 nM,> 100 µM,,CCNC(=O)CCn1cc2c(N)nc3cc(-c4cc[nH]n4)ccc3c2n1 [Example 517]
> 100 µM,530 nM,> 100 µM,,Cn1cnc(C(=O)NCCc2cc3c(N)nc4cc(-c5cc[nH]n5)ccc4c3[nH]2)c1 [Example 518]
> 100 µM,2070 nM,> 100 µM,,Nc1nc2cc(-c3cc[nH]n3)ccc2c2[nH]c(CCNC(=O)c3cccc(O)n3)cc12 [Example 519]
> 100 µM,90 nM,> 100 µM,,Nc1nc2cc(-c3cc[nH]n3)ccc2c2[nH]c(CNCC(F)F)cc12 [Example 520]
> 100 µM,5670 nM,> 100 µM,,CC(C)(C(=O)NCCO)n1cc2c(N)nc3cc(-c4cc[nH]n4)ccc3c2n1 [Example 521]
> 100 µM,12200 nM,> 100 µM,,CC(C)(CO)NC(=O)C(C)(C)n1cc2c(N)nc3cc(-c4cc[nH]n4)ccc3c2n1 [Example 522]
> 100 µM,7300 nM,> 100 µM,,CC(C)(C(=O)N1CC(F)(F)C1)n1cc2c(N)nc3cc(-c4cc[nH]n4)ccc3c2n1 [Example 523]
> 100 µM,2030 nM,> 100 µM,,CC(C)(C(=O)NC1CCC1)n1cc2c(N)nc3cc(-c4cc[nH]n4)ccc3c2n1 [Example 524]
> 100 µM,20200 nM,> 100 µM,,CC(C)(C(=O)NCc1ccccn1)n1cc2c(N)nc3cc(-c4cc[nH]n4)ccc3c2n1 [Example 525]
> 100 µM,700 nM,> 100 µM,,CCS(=O)(=O)CCn1cc2c(n1)c(N)nc1cc(-c3cc[nH]n3)ccc12 [Example 526]
> 100 µM,400 nM,> 100 µM,,NC(=O)C1(Cn2cc3c(n2)c(N)nc2cc(-c4cc[nH]n4)ccc23)CC1 [Example 527]
> 100 µM,510 nM,> 100 µM,,Nc1nc2cc(-c3cc[nH]n3)ccc2c2cn(CC(=O)N3CCCC3)nc12 [Example 528]
> 100 µM,870 nM,> 100 µM,,CCNC(=O)Cn1cc2c(n1)c(N)nc1cc(-c3cc[nH]n3)ccc12 [Example 529]
> 100 µM,680 nM,> 100 µM,,C[C@H](Cn1cc2c(n1)c(N)nc1cc(-c3cc[nH]n3)ccc12)NS(C)(=O)=O [Example 530]

EC50 (TLR8),EC50 (THP-1 cells; [1]),EC50 (TLR7),EC50 (THP-1 cells; IL-1β production),Structure (SMILES)
> 100 µM,1680 nM,> 100 µM,,C[C@@H](Cn1cc2c(n1)c(N)nc1cc(-c3cc[nH]n3)ccc12)NS(C)(=O)=O [Example 531]
> 100 µM,340 nM,> 100 µM,,Nc1nc2cc(-c3cc[nH]n3)ccc2c2cn(CC(=O)N3CCOCC3)nc12 [Example 532]
> 100 µM,2280 nM,> 100 µM,,Nc1nc2cc(-c3cc[nH]n3)ccc2c2cn(CC(=O)N[C@@H]3CCOC3)nc12 [Example 533]
> 100 µM,710 nM,> 100 µM,,CC(C)NC(=O)Cn1cc2c(n1)c(N)nc1cc(-c3cc[nH]n3)ccc12 [Example 534]
> 100 µM,960 nM,> 100 µM,,CNC(=O)CCn1cc2c(n1)c(N)nc1cc(-c3cc[nH]n3)ccc12 [Example 535]
> 100 µM,3580 nM,> 100 µM,,COCCNC(=O)Cn1cc2c(n1)c(N)nc1cc(-c3cc[nH]n3)ccc12 [Example 536]
> 100 µM,2750 nM,> 100 µM,,CC(C)(CO)NC(=O)Cn1cc2c(n1)c(N)nc1cc(-c3cc[nH]n3)ccc12 [Example 537]
> 100 µM,600 nM,> 100 µM,,Nc1nc2cc(-c3cc[nH]n3)ccc2c2cn(CC(=O)NCC(F)F)nc12 [Example 538]
> 100 µM,18500 nM,> 100 µM,,CC(Cn1cc2c(n1)c(N)nc1cc(-c3cc[nH]n3)ccc12)C(=O)N1CCOCC1 (stereo not drawn) [Example 539]
> 100 µM,3130 nM,> 100 µM,,N#C[C@H]1CCN(C(=O)Cn2cc3c(n2)c(N)nc2cc(-c4cc[nH]n4)ccc23)C1 [Example 540]
> 100 µM,650 nM,> 100 µM,,NC(=O)Cn1cc2c(n1)c(N)nc1cc(-c3ccn[nH]3)ccc12 [Example 541]
> 100 µM,1580 nM,> 100 µM,,COCCN(C)C(=O)Cn1cc2c(n1)c(N)nc1cc(-c3cc[nH]n3)ccc12 [Example 542]
> 100 µM,2030 nM,> 100 µM,,Nc1nc2cc(-c3cc[nH]n3)ccc2c2cn(CC(=O)N3CC(F)C3)nc12 [Example 543]
> 100 µM,,> 100 µM,4360 nM,Nc1nc2cc(-c3cc[nH]n3)ccc2c2cn(CC(=O)N[C@@H]3CCOC3)nc12 [Example 544]
> 100 µM,1790 nM,> 100 µM,,Nc1nc2cc(-c3cc[nH]n3)ccc2c2cn(CC(=O)N3CC(F)(F)C3)nc12 [Example 545]
> 100 µM,3270 nM,> 100 µM,,COC1CN(C(=O)Cn2cc3c(n2)c(N)nc2cc(-c4cc[nH]n4)ccc23)C1 [Example 546]
> 100 µM,5300 nM,> 100 µM,,CN(CCO)C(=O)Cn1cc2c(n1)c(N)nc1cc(-c3cc[nH]n3)ccc12 [Example 547]
> 100 µM,780 nM,> 100 µM,,Nc1nc2cc(-c3cc[nH]n3)ccc2c2cn(CC(=O)NC3CCC3)nc12 [Example 548]
